Square brackets hold non-standard residues; d marks the D form. Peptide text beside a SMILES is read from it. Nle = CCCC[C@H](N)C(=O)O; Orn = NCCC[C@H](N)C(=O)O
Assays:
[1] = lowering of blood pressure, in vivo testing; conditions: general procedure of Example III
Description: (§1) The synthetic peptide AHC and oCRF were examined for their effects on the secretion of ACTH and β-endorphin in vitro and was also in vivo. The potency of synthetic oCRF to stimulate the secretion of ACTH and β-endorphin by cultured rat pituitary cells was measured using the procedure as generally set forth in Endocrinology, 91, 562 (1972). […] In vivo testing is carried out using the general procedure set forth in C. Rivier et al., Science, 218, 377 (1982).

[2] = system: cultured rat pituitary cells; assay: secretion of ACTH and β-endorphin by cultured rat pituitary cells; type: cell-based
Description: as §1

[3] = general procedure of Example III

SMILES: CCCC[C@H](NC(=O)[C@H](CCC(=O)O)NC(=O)[C@H](CC(C)C)NC(=O)[C@@H](NC(=O)[C@H](CCC(=O)O)NC(=O)[C@H](CCCNC(=N)N)NC(=O)[C@H](CC(C)C)NC(=O)[C@H](CC(C)C)NC(=O)[C@H](Cc1c[nH]cn1)NC(=O)[C@H](Cc1ccccc1)NC(=O)[C@@H](NC(=O)[C@H](CC(C)C)NC(=O)[C@H](CC(=O)O)NC(=O)[C@H](CC(C)C)NC(=O)[C@H](CO)NC(=O)[C@@H](NC(=O)[C@@H]1CCCN1C(=O)[C@H]1CCCN1)[C@@H](C)CC)[C@@H](C)O)C(C)C)C(=O)N[C@@H](C)C(=O)N[C@@H](CCCNC(=N)N)C(=O)N[C@@H](C)C(=O)N[C@@H](CCC(=O)O)C(=O)N[C@@H](CCC(N)=O)C(=O)N[C@@H](CC(C)C)C(=O)N[C@@H](C)C(=O)N[C@@H](CCC(N)=O)C(=O)N[C@@H](CCC(N)=O)C(=O)N[C@@H](C)C(=O)N[C@@H](Cc1c[nH]cn1)C(=O)N[C@@H](CO)C(=O)N[C@@H](CC(N)=O)C(=O)N[C@@H](CCCNC(=N)N)C(=O)N[C@@H](CCCCN)C(=O)N[C@@H](CC(C)C)C(=O)N[C@@H](CCSC)C(=O)N[C@@H](CCC(=O)O)C(=O)N[C@H](C(=O)N[C@H](C(N)=O)[C@@H](C)CC)[C@@H](C)CC [[D-Pro^4,Nle^21,38]-rCRF(4-41)] (H-[dP]PISLDLTFHLLREVLE[Nle]ARAEQLAQQAHSNRKLMEII-NH2)
- lowering of blood pressure [1]: very significant lowering of blood pressure
- secretion of ACTH and β-END-LI compared with oCRF ([2]; comparison with oCRF): in an amount greater than oCRF

SMILES: CCCC[C@H](NC(=O)[C@H](CCC(=O)O)NC(=O)[C@H](CC(C)C)NC(=O)[C@H](CCCC)NC(=O)[C@H](CCC(=O)O)NC(=O)[C@H](CCCNC(=N)N)NC(=O)[C@H](CC(C)C)NC(=O)[C@H](CC(C)C)NC(=O)[C@H](Cc1c[nH]cn1)NC(=O)[C@H](Cc1ccccc1)NC(=O)[C@@H](NC(=O)[C@H](CC(C)C)NC(=O)[C@H](CC(=O)O)NC(=O)[C@H](CC(C)C)NC(=O)[C@H](CO)NC(=O)[C@@H](NC(=O)[C@@H]1CCCN1C(=O)[C@H]1CCCN1C(=O)[C@H](N)Cc1ccc(O)cc1)[C@@H](C)CC)[C@@H](C)O)C(=O)N[C@@H](C)C(=O)N[C@@H](CCCCN)C(=O)N[C@@H](C)C(=O)N[C@@H](CCC(=O)O)C(=O)N[C@@H](CCC(N)=O)C(=O)N[C@@H](CCC(=O)O)C(=O)N[C@@H](C)C(=O)N[C@@H](CCC(=O)O)C(=O)N[C@@H](CCC(N)=O)C(=O)N[C@@H](C)C(=O)N[C@@H](C)C(=O)N[C@@H](CC(C)C)C(=O)N[C@@H](CC(N)=O)C(=O)N[C@@H](CCCNC(=N)N)C(=O)N[C@@H](CC(C)C)C(=O)N[C@@H](CC(C)C)C(=O)N[C@@H](CC(C)C)C(=O)N[C@@H](CCC(=O)O)C(=O)N[C@@H](CCC(=O)O)C(=O)N[C@@H](C)C(N)=O [[D-Tyr^3, D-Pro^4, Nle^18,21]-AHC(3-41)] (H-[dY][dP]PISLDLTFHLLRE[Nle]LE[Nle]AKAEQEAEQAALNRLLLEEA-NH2)
- lowering of blood pressure [1]: very significant lowering of blood pressure
- secretion of ACTH and β-END-LI, amount relative to oCRF ([2]; % of oCRF, general procedure of Example III): about 470%

SMILES: CCCC[C@H](NC(=O)[C@H](CCC(=O)O)NC(=O)[C@H](CC(C)C)NC(=O)[C@H](CCCC)NC(=O)[C@H](CCC(=O)O)NC(=O)[C@H](CCCNC(=N)N)NC(=O)[C@H](CC(C)C)NC(=O)[C@H](CC(C)C)NC(=O)[C@H](Cc1c[nH]cn1)NC(=O)[C@H](Cc1ccccc1)NC(=O)[C@@H](NC(=O)[C@H](CC(C)C)NC(=O)[C@H](CC(=O)O)NC(=O)[C@H](CC(C)C)NC(=O)[C@H](CO)NC(=O)[C@@H](NC(=O)[C@@H]1CCCN1C(=O)[C@@H]1CCCN1C(=O)[C@H](N)Cc1ccc(O)cc1)[C@@H](C)CC)[C@@H](C)O)C(=O)N[C@@H](C)C(=O)N[C@@H](CCCCN)C(=O)N[C@@H](C)C(=O)N[C@@H](CCC(=O)O)C(=O)N[C@@H](CCC(N)=O)C(=O)N[C@@H](CCC(=O)O)C(=O)N[C@@H](C)C(=O)N[C@@H](CCC(=O)O)C(=O)N[C@@H](CCC(N)=O)C(=O)N[C@@H](C)C(=O)N[C@@H](C)C(=O)N[C@@H](CC(C)C)C(=O)N[C@@H](CC(N)=O)C(=O)N[C@@H](CCCNC(=N)N)C(=O)N[C@@H](CC(C)C)C(=O)N[C@@H](CC(C)C)C(=O)N[C@@H](CC(C)C)C(=O)N[C@@H](CCC(=O)O)C(=O)N[C@@H](CCC(=O)O)C(=O)N[C@@H](C)C(N)=O [[D-Tyr^3, Nle^18,21]-AHC(3-41)] (H-[dY]PPISLDLTFHLLRE[Nle]LE[Nle]AKAEQEAEQAALNRLLLEEA-NH2)
- lowering of blood pressure [1]: very significant lowering of blood pressure
- stimulates the secretion of ACTH and β-END-LI [2, 3]: stimulates the secretion of ACTH and β-END-LI

SMILES: CC[C@H](C)[C@H](NC(=O)[C@@H](NC(=O)[C@H](CCC(=O)O)NC(=O)[C@H](CC(C)C)NC(=O)[C@H](CC(C)C)NC(=O)[C@H](CCCCN)NC(=O)[C@H](CCCNC(=N)N)NC(=O)[C@H](CC(N)=O)NC(=O)[C@H](CO)NC(=O)[C@H](Cc1c[nH]cn1)NC(=O)[C@H](C)NC(=O)[C@H](CCC(N)=O)NC(=O)[C@H](CCC(=O)O)NC(=O)[C@H](C)NC(=O)[C@H](CC(C)C)NC(=O)[C@H](CCC(N)=O)NC(=O)[C@H](CCC(=O)O)NC(=O)[C@H](CCCN)NC(=O)[C@H](C)NC(=O)[C@H](CCSC)NC(=O)[C@H](CCC(=O)O)NC(=O)[C@H](CC(C)C)NC(=O)[C@@H](NC(=O)[C@H](CCC(=O)O)NC(=O)[C@H](CCCNC(=N)N)NC(=O)[C@H](CC(C)C)NC(=O)[C@H](CC(C)C)NC(=O)[C@H](Cc1c[nH]cn1)NC(=O)[C@H](Cc1ccccc1)NC(=O)[C@@H](NC(=O)[C@H](CC(C)C)NC(=O)[C@H](CC(=O)O)NC(=O)[C@H](CC(C)C)NC(=O)[C@H](CO)NC(=O)[C@@H](NC(=O)[C@@H]1CCCN1C(=O)[C@@H]1CCCN1C(=O)[C@H](CCC(=O)O)NC(=O)[C@H](CCC(N)=O)NC(=O)[C@@H](N)CO)[C@@H](C)CC)[C@@H](C)O)C(C)C)[C@@H](C)CC)C(N)=O [[Gln^2, Orn^23, Glu^29, Leu^38]-rCRF] (H-SQEPPISLDLTFHLLREVLEMA[Orn]EQLAEQAHSNRKLLEII-NH2)
- lowering of blood pressure [1]: very significant lowering of blood pressure
- stimulates the secretion of ACTH and β-END-LI [2, 3]: stimulates the secretion of ACTH and β-END-LI

SMILES: CCCC[C@H](NC(=O)[C@H](CCC(=O)O)NC(=O)[C@H](CC(C)C)NC(=O)[C@H](CCCC)NC(=O)[C@H](CCC(=O)O)NC(=O)[C@H](CCCNC(=N)N)NC(=O)[C@H](CC(C)C)NC(=O)[C@H](CC(C)C)NC(=O)[C@H](Cc1c[nH]cn1)NC(=O)[C@H](Cc1ccccc1)NC(=O)[C@@H](NC(=O)[C@H](CC(C)C)NC(=O)[C@H](CC(=O)O)NC(=O)[C@H](CC(C)C)NC(=O)[C@H](CO)NC(=O)[C@@H](NC(=O)[C@@H]1CCCN1)[C@@H](C)CC)[C@@H](C)O)C(=O)N[C@@H](C)C(=O)N[C@@H](CCCNC(=N)N)C(=O)N[C@@H](C)C(=O)N[C@@H](CCC(=O)O)C(=O)N[C@@H](CCC(N)=O)C(=O)N[C@@H](CCC(=O)O)C(=O)N[C@@H](C)C(=O)N[C@@H](CCC(=O)O)C(=O)N[C@@H](CCC(N)=O)C(=O)N[C@@H](C)C(=O)N[C@@H](C)C(=O)N[C@@H](CC(C)C)C(=O)N[C@@H](CC(N)=O)C(=O)N[C@@H](CCCNC(=N)N)C(=O)N[C@@H](CC(C)C)C(=O)N[C@@H](CC(C)C)C(=O)N[C@@H](CC(C)C)C(=O)N[C@@H](CCC(=O)O)C(=O)N[C@@H](CCC(=O)O)C(=O)N[C@@H](C)C(N)=O [[Nle^18,21,Arg^23]-AHC(5-41)] (H-PISLDLTFHLLRE[Nle]LE[Nle]ARAEQEAEQAALNRLLLEEA-NH2)
- lowering of blood pressure [1]: very significant lowering of blood pressure
- stimulates the secretion of ACTH and β-END-LI [2, 3]: stimulates the secretion of ACTH and β-END-LI

SMILES: CCCC[C@H](NC(=O)[C@H](CCC(=O)O)NC(=O)[C@H](CC(C)C)NC(=O)[C@H](CCCC)NC(=O)[C@H](CCC(=O)O)NC(=O)[C@H](CCCNC(=N)N)NC(=O)[C@H](CC(C)C)NC(=O)[C@H](CC(C)C)NC(=O)[C@H](Cc1c[nH]cn1)NC(=O)[C@H](Cc1ccccc1)NC(=O)[C@@H](NC(=O)[C@H](CC(C)C)NC(=O)[C@H](CC(=O)O)NC(=O)[C@H](CC(C)C)NC(=O)[C@H](CO)NC(=O)[C@@H](N)[C@@H](C)CC)[C@@H](C)O)C(=O)N[C@@H](C)C(=O)N[C@@H](CCCCN)C(=O)N[C@@H](C)C(=O)N[C@@H](CCC(=O)O)C(=O)N[C@@H](CCC(N)=O)C(=O)N[C@@H](CCC(=O)O)C(=O)N[C@@H](C)C(=O)N[C@@H](CCC(=O)O)C(=O)N[C@@H](CCC(N)=O)C(=O)N[C@@H](C)C(=O)N[C@@H](C)C(=O)N[C@@H](CC(C)C)C(=O)N[C@@H](CC(N)=O)C(=O)N[C@@H](CCCNC(=N)N)C(=O)N[C@@H](CCCNC(=N)N)C(=O)N[C@@H](CC(C)C)C(=O)N[C@@H](CC(C)C)C(=O)N[C@@H](CCC(=O)O)C(=O)N[C@@H](CCC(=O)O)C(=O)N[C@@H](C)C(N)=O [[Nle^18,21,Arg^36]-AHC(6-41)] (H-ISLDLTFHLLRE[Nle]LE[Nle]AKAEQEAEQAALNRRLLEEA-NH2)
- lowering of blood pressure [1]: very significant lowering of blood pressure
- stimulates the secretion of ACTH and β-END-LI [2, 3]: stimulates the secretion of ACTH and β-END-Li

Source: patent US4594329A, “CRF analogs” (The Salk Institute for Biological Studies, priority 1984, dated 1986)
